# Experimental data from patent US20260130933A1, “PHARMACEUTICAL COMPOSITION FOR PREVENTION OR TREATMENT OF NEPHROPATHY AND/OR DIABETES MELLITUS, COMPRISING ENAVOGLIFLOZIN” (DAEWOONG PHARMACEUTICAL CO., LTD., priority 2022, published 2026).
# Assay: Example 2: phase 3 trial, enavogliflozin 0.3 mg vs dapagliflozin 10 mg once a day for 24 weeks added to metformin in patients with type 2 diabetes (same efficacy, exploratory and safety endpoints)
# Format: in vivo, human
# Experimental: Subjects who met the inclusion/exclusion criteria were administered a placebo of the clinical trial drug under single-blind (subject blinding) conditions during a 2-week run-in period while continuing to receive metformin. […] The randomized subjects were administered two tablets of the clinical trial drug for each administration group once a day, and then visited the institution at weeks 6, 12, 18, and 24 during the 24-week administration period to conduct efficacy and safety evaluations.
# • 1. Change in HbA1c at week 24 after administration of clinical trial drug compared to Visit 2 (randomization)
# • 1. Change in HbA1c at each time point of weeks 6, 12, and 18 after administration of clinical trial drug compared to Visit 2 (randomization) • 2. Change in FPG at each time point of weeks 6, 12, 18, and 24 after administration of clinical trial drug compared to Visit 2 (randomization) • 3. Proportion of subjects achieving HbA1c<7% at each time point of weeks 6, 12, 18, and 24 after administration of clinical trial drug • 4. Proportion of subjects achieving HbA1c<6.5% at each time point of weeks 6, 12, 18, and 24 after administration of clinical trial drug • 5. Proportion of subjects achieving therapeutic response (HbA1c change (HbA1c at Visit 2-HbA1c at each evaluation time point)>0.5% or HbA1c<7% at each evaluation time point compared to Visit 2 (randomization)) at each time point of weeks 6, 12, 18 and 24 after administration of clinical trial drug
# • 1. Change in fasting c-peptide at each time point of weeks 6, 12, 18, and 24 after administration of clinical trial drug compared to Visit 2 (randomization) • 2. Change in body weight at each time point of weeks 6, 12, 18, and 24 after administration of clinical trial drug compared to Visit 2 (randomization) • 3. Change in fasting lipid concentration (total cholesterol, LDL-C, HDL-C, and triglycerides) at each time point of weeks 6, 12, 18, and 24 after administration of clinical trial drug compared to Visit 2 (randomization) • 4. Changes in systolic or diastolic blood pressure at each time point of weeks 6, 12, 18, and 24 after administration of clinical trial drug compared to Visit 2 (randomization) • 5. Changes in β-cell function and insulin resistance measured by HOMA-β and HOMA-IR at each time point of weeks 6, 12, 18, and 24 after administration of clinical trial drug compared to Visit 2 (randomization) • 6. Changes in renal function-related indicators (UACR, UGCR) measured by UACR at each time point of weeks 6, 12, 18, and 24 after administration of clinical trial drug compared to Visit 2 (randomization) • 7. Changes in obesity-related indicators (adiponectin, leptin) at each time point of weeks 6, 12, 18, and 24 after administration of clinical trial drug compared to Visit 2 (randomization)
# [1] = Week 6, PPS, enavogliflozin minus dapagliflozin
# [2] = Week 6, mPPS1, enavogliflozin minus dapagliflozin
# [3] = Week 6, mPPS2, enavogliflozin minus dapagliflozin
# [4] = Week 12, PPS, enavogliflozin minus dapagliflozin
compound,measurement,setting,value
"OC[C@H]1O[C@@H](c2cc(Cc3ccc(C4CC4)cc3)c(Cl)c3c2CCO3)[C@H](O)[C@@H](O)[C@@H]1O [Enavogliflozin, (2S,3R,4R,5S,6R)-2-(7-chloro-6 (4-cyclopropylbenzyl)-2,3-dihydrobenzofuran-4-yl)-6-(hydroxymethyl)tetrahydro-2H-pyran-3,4,5-triol]","UGCR change from baseline, LS mean difference",[1],15.62 mg/mg
same,"leptin change from baseline, LS mean difference",[1],-0.81 ng/mL
same,"HDL-C change from baseline, ANCOVA LS mean (SE)","Week 6, mPPS1",1.11(0.58) mg/dL
same,"HDL-C change from baseline, Mean (SD)","Week 6, mPPS1",1.18(5.14) mg/dL
same,"HDL-C change from baseline, Median","Week 6, mPPS1",1.00 mg/dL
same,"HDL-C, Mean (SD)","Week 6, mPPS1",52.12(11.10) mg/dL
same,"HDL-C, Median","Week 6, mPPS1",51.00 mg/dL
same,"LDL-C change from baseline, ANCOVA LS mean (SE)","Week 6, mPPS1",−0.09(1.89) mg/dL
same,"LDL-C change from baseline, Mean (SD)","Week 6, mPPS1",−0.67(15.12) mg/dL
same,"LDL-C change from baseline, Median","Week 6, mPPS1",-2.00 mg/dL
same,"LDL-C, Mean (SD)","Week 6, mPPS1",85.85(31.51) mg/dL
same,"LDL-C, Median","Week 6, mPPS1",79.00 mg/dL
same,"Triglycerides change from baseline, ANCOVA LS mean (SE)","Week 6, mPPS1",8.62(6.88) mg/dL
same,"Triglycerides change from baseline, Mean (SD)","Week 6, mPPS1",9.49(73.63) mg/dL
same,"Triglycerides change from baseline, Median","Week 6, mPPS1",-3.00 mg/dL
same,"Triglycerides, Mean (SD)","Week 6, mPPS1",131.59(114.93) mg/dL
same,"Triglycerides, Median","Week 6, mPPS1",97.00 mg/dL
same,"HDL-C change from baseline, LS mean difference",[2],-0.49 mg/dL
same,"LDL-C change from baseline, LS mean difference",[2],-4.29 mg/dL
same,"triglycerides change from baseline, LS mean difference",[2],18.76 mg/dL
same,"Diastolic blood pressure change from baseline, ANCOVA LS mean (SE)","Week 6, mPPS2",−2.75 mmHg
same,"Diastolic blood pressure change from baseline, Mean (SD)","Week 6, mPPS2",−2.80 mmHg
same,"Diastolic blood pressure change from baseline, Median","Week 6, mPPS2",−3.00 mmHg
same,"Diastolic blood pressure, Mean (SD)","Week 6, mPPS2",74.25 mmHg
same,"Diastolic blood pressure, Median","Week 6, mPPS2",74.00 mmHg
same,"Systolic blood pressure change from baseline, ANCOVA LS mean (SE)","Week 6, mPPS2",−3.29(1.02) mmHg
same,"Systolic blood pressure change from baseline, Mean (SD)","Week 6, mPPS2",−3.28(9.34) mmHg
same,"Systolic blood pressure change from baseline, Median","Week 6, mPPS2",−4.00 mmHg
same,"Systolic blood pressure, Mean (SD)","Week 6, mPPS2",126.44(14.45) mmHg
same,"Systolic blood pressure, Median","Week 6, mPPS2",128.00 mmHg
same,"diastolic blood pressure change from baseline, LS mean difference",[3],−1.28 mmHg
same,"systolic blood pressure change from baseline, LS mean difference",[3],−0.58 mmHg
same,"Adiponectin change from baseline, ANCOVA LS mean (SE)","Week 12, PPS",0.84 µg/mL
same,"Adiponectin change from baseline, Mean (SD)","Week 12, PPS",0.9 µg/mL
same,"Adiponectin change from baseline, Median","Week 12, PPS",0.68 µg/mL
same,"Adiponectin, Mean (SD)","Week 12, PPS",7.87 µg/mL
same,"Adiponectin, Median","Week 12, PPS",6.91 µg/mL
same,"HOMA-IR change from baseline, ANCOVA LS mean (SE)","Week 12, PPS",−1.58
same,"HOMA-IR change from baseline, Mean (SD)","Week 12, PPS",−1.36
same,"HOMA-IR change from baseline, Median","Week 12, PPS",−0.99
same,"HOMA-IR, Mean (SD)","Week 12, PPS",2.10
same,"HOMA-IR, Median","Week 12, PPS",1.61
same,"HOMA-β change from baseline, ANCOVA LS mean (SE)","Week 12, PPS",5.57
same,"HOMA-β change from baseline, Mean (SD)","Week 12, PPS",5.59
same,"HOMA-β change from baseline, Median","Week 12, PPS",5.10
same,"HOMA-β, Mean (SD)","Week 12, PPS",51.45
same,"HOMA-β, Median","Week 12, PPS",41.60
same,"Leptin change from baseline, ANCOVA LS mean (SE)","Week 12, PPS",-2.64 ng/mL
same,"Leptin change from baseline, Mean (SD)","Week 12, PPS",-2.73 ng/mL
same,"Leptin change from baseline, Median","Week 12, PPS",-1.45 ng/mL
same,"Leptin, Mean (SD)","Week 12, PPS",9.56 ng/mL
same,"Leptin, Median","Week 12, PPS",6.60 ng/mL
same,"UACR change from baseline, ANCOVA LS mean (SE)","Week 12, PPS",-21.65 g/kg
same,"UACR change from baseline, Mean (SD)","Week 12, PPS",-18550 mg/kg
same,"UACR change from baseline, Median","Week 12, PPS",-1.40 g/kg
same,"UACR, Mean (SD)","Week 12, PPS",19800 mg/kg
same,"UACR, Median","Week 12, PPS",11.05 g/kg
same,"UGCR change from baseline, ANCOVA LS mean (SE)","Week 12, PPS",64.70 mg/mg
same,"UGCR change from baseline, Mean (SD)","Week 12, PPS",63.04 mg/mg
same,"UGCR change from baseline, Median","Week 12, PPS",58.91 mg/mg
same,"UGCR, Mean (SD)","Week 12, PPS",64.53 mg/mg
same,"UGCR, Median","Week 12, PPS",62.30 mg/mg
same,"HOMA-IR change from baseline, LS mean difference",[4],0.02
same,"HOMA-β change from baseline, LS mean difference",[4],−3.17
same,"UACR change from baseline, LS mean difference",[4],-18.27 g/kg
same,"UGCR change from baseline, LS mean difference",[4],19.57 mg/mg
same,"leptin change from baseline, LS mean difference",[4],0.07 ng/mL
same,"HDL-C change from baseline, ANCOVA LS mean (SE)","Week 12, mPPS1",2.31(0.60) mg/dL
same,"HDL-C change from baseline, Mean (SD)","Week 12, mPPS1",2.08(5.60) mg/dL
same,"HDL-C change from baseline, Median","Week 12, mPPS1",2.00 mg/dL
